Measurements from US6916815B2, “C-6 modified indazolylpyrrolotriazines” (Bristol-Myers Squibb Company, priority 2002, dated 2005).
Counter-ions that a name gives are not always drawn.

melting point: > 300 °C
Structure (SMILES): CCc1c(NC(=O)OC[C@@H]2COCCN2)cn2ncnc(Nc3ccc4c(cnn4Cc4ccccc4)c3)c12 (as salt: hydrochloride) [Example 1, [5-ethyl-4-[[(1-phenylmethyl)-1H-indazol-5-yl]amino]pyrrolo[2,1-f][1,2,4]triazin-6-yl]-carbamic acid, (3S)-3-morpholinylmethyl ester]
